Assay results from patent EP1878431B1, “MEDICINAL AGENT FOR PREVENTING PROGRESSION OF APOPTOTIC AND JUGULATING NECROTIC CHANGES IN THE ORGANISM TISSUES” (Obschestvo S Ogranichennoi Otvetstvennostyu …, priority 2005, dated 2006).
Marks after values point to notes of the source that are not given here.

Columns and labels:
[1] = system: low-resistant to hypoxia animals; experiment: Acute hypobaric anoxia in combination with hypercapnia (lifting to 11,500 m): lifetime, loss of pose time, restitution time, stability factor; assay type: in vivo; details: for Stability factor: ratio of duration to restitution time
Experimental: (§1) Example 7. Acute hypobaric anoxia (as one of the most adequate methods of hypoxia study) in combination with hypercapnia was modeled by "lifting" low-resistant to hypoxia animals to a critical altitude of 11,500 m at a speed of 1,200 m/min. If at this altitude for more than 10 minutes, hypoxia modeling stopped, and the animals were considered conditionally "high-resistant", and animals that lived less than 10 minutes were considered conditionally "low-resistant". In the present study, only animals with low-resistance to hypoxia were used. During the second experiment of "lifting" animals in order to simulate hypobaric anoxia, in combination with hypercapnia, these parameters were recorded: loss of pose time (LPT), lifetime - time from the end of "lifting" until respiratory standstill or the first atonal inhalation occurrence, restitution time (RT) - from a respiratory standstill until active pose restoration after descending the animal. The hypoxia stability factor was calculated as a ratio of the duration to the restitution time, an increase of which means the growth of the organism's resistance to the occurrence of extreme oxygen deprivation.
(§2) The studied substances were injected intravenously (method that reflects the maximum effect of the medication) 15 minutes prior to the experiment. The designed medication was also injected intravenously in the form of an infusion or pills that were administered orally or a suppository.

[2] = system: poly-(ADP-ribose)-polymerase; experiment: PARP activity in myocardium and brain at acute hypobaric hypoxia with hypercapnia; assay type: in vivo
Experimental: (§3) The apoptosis activity was judged by poly-(ADP-ribose)-polymerase (key ferment of apoptotic cell loss), which was determined using Amersham Pharmacia Biotech test sets. The extent of necrotic cardiomyocites damage was estimated according to the quantity of myoglobin entry in the blood, in which the myoglobin content was measured spectrophotometrically.
as §1, §2

myocardium = experiment: Myocardium ischemia (coronary artery ligation) with arterial hypertension: arrhythmia, ischemia and necrosis zones, myoglobin; assay type: in vivo, rats; details: for Arrhythmia duration / Ischemia zone, % of myocardium mass / Necrosis zone, % from ischemia zone / Necrosis zone, % from myocardium mass: 6 hours after bandaging
Experimental: as §3
(§4) Arterial hypertensia of normotensive rats was reproduced by imposing the ligature in the form of a titanic heliciform ring on a site of an aorta with the arteries of kidneys departing from it. The reached narrowing of an aortic lumen was 2/3 in diameter. Animals were operated on under anesthetic, in which their abdominal cavity was opened. The arterial pressure was measured by use of a gauge with a rubber cuff on the animal's tail. A signal from the gauge was recorded on a Mingograph EMT 118. On the 30th day after the operation, all of the animals were divided into two groups: in the first group the animal's left descending interventricular artery at its top third was ligated - the hard ischemia of a myocardium, and in the second group, an irreversible bilateral occlusion of the general carotids was reproduced with a silk thread (see example 9). […] Both groups of animals were euthanased on the 10th day after the operation. All of the investigated connections were introduced intravenously (this method of introduction was chosen to reflect the maximum effect of the medication) within 15 minutes after coronary artery bandaging. The developed means was also introduced intravenously in the form of an infusion in 5% glucose, or in tablet form with an oral administration, or in a kind of suppository.

[3] = system: poly-(ADP-ribose)-polymerase; experiment: PARP activity during myocardium ischemia with arterial hypertension; assay type: in vivo, rats; details: no unit in table (b49 gives the norm in pkMole/mg of protein)
Experimental: as §3
as §4, with “All of the investigated connections were introduced intravenously (this method of introduction was chosen to reflect the maximum effect of the medication) within 15 minutes after coronary artery bandaging. The developed means was also introduced intravenously in the form of an infusion in 5% glucose, or in tablet form with an oral administration, or in a kind of suppository.” left out

[4] = 100 mg/kg intravenously 15 minutes prior to the experiment
[5] = 50 mg/kg intravenously 15 minutes prior to the experiment
[6] = 500 mg/kg intravenously 15 minutes prior to the experiment
[7] = 75 mg/kg intravenously within 15 minutes after coronary artery bandaging
[8] = 100 mg/kg intravenously within 15 minutes after coronary artery bandaging
[9] = 1.0 mg/kg intravenously 15 minutes prior to the experiment
[10] = 10.0 mg/kg intravenously 15 minutes prior to the experiment

SMILES: NC(=S)N=C(N)N [hutimine]
- Duration [1, 4]: 986 ± 87 s
- Loss of Pose Time [1, 4]: 186 ± 32 s
- Restitution time [1, 4]: 685 ± 82 s
- Stability factor [1, 4]: 1.45±0.12
- PARP activity, % of control brain [2, 4]: 290±83 % of control
- PARP activity, % of control myocardium [2, 4]: 212±23 % of control

SMILES: O=C([O-])CCCO.[Li+] [Lithium oxybutyrate]
- Duration [1, 4]: 1345 ± 89 s
- Loss of Pose Time [1, 4]: 436+90** sec
- Restitution time [1, 4]: 885 ± 82 s
- Stability factor [1, 4]: 1.4±0.2
- PARP activity, % of control brain [2, 4]: 300±82 % of control
- PARP activity, % of control myocardium [2, 4]: 200±33 % of control

SMILES: CCc1nc(C)ccc1O.O=C(O)CCC(=O)O [3-oxy-3-methyl-6-oxypyridine succinate]
- Duration [1, 5]: 778 ± 107 s
- Loss of Pose Time [1, 5]: 136 ± 22 s
- Restitution time [1, 5]: 680 ± 69 s
- Stability factor [1, 5]: 1.14±0.12
- Duration [1, 4]: 707 ± 145 s
- Loss of Pose Time [1, 4]: 156 ± 29 s
- Restitution time [1, 4]: 642 ± 69 s
- Stability factor [1, 4]: 1.10±0.13
- Duration [1, 6]: 784 ± 107 s
- Loss of Pose Time [1, 6]: 136 ± 39 s
- Restitution time [1, 6]: 690 ± 83 s
- Stability factor [1, 6]: 1.14±0.10
- PARP activity, % of control brain [2, 5]: 312±29 % of control
- PARP activity, % of control myocardium [2, 5]: 204±21 % of control
- PARP activity, % of control brain [2, 4]: 317±21 % of control
- PARP activity, % of control myocardium [2, 4]: 208±29 % of control
- PARP activity, % of control brain [2, 6]: 302±32 % of control
- PARP activity, % of control myocardium [2, 6]: 202±19 % of control

SMILES: C[N+](C)(C)C[C@H](O)CC(=O)[O-] [L-carnitine]
- Arrhythmia duration (myocardium; [7]): 68 ± 8 min
- Ischemia zone, % of myocardium mass (myocardium; [7]): 40±3 % of myocardium mass
- Necrosis zone, % from ischemia zone (myocardium; [7]): 70±5 % from ischemia zone
- Necrosis zone, % from myocardium mass (myocardium; [7]): 28±9 % from myocardium mass
- Myoglobin content after 8 hours (myocardium; [7]): 132±10 mcg/g dry solid matter
- PARP activity [3, 7]: 0,406± 0,030

SMILES: CCc1nc(C)ccc1O [3-hydroxy-6-methyl-2-ethylpyridine]
- Arrhythmia duration (myocardium; [8]): 58 ± 9 min
- Ischemia zone, % of myocardium mass (myocardium; [8]): 39±3 % of myocardium mass
- Necrosis zone, % from ischemia zone (myocardium; [8]): 67±3 % from ischemia zone
- Necrosis zone, % from myocardium mass (myocardium; [8]): 26±9 % from myocardium mass
- Myoglobin content after 8 hours (myocardium; [8]): 127±12 mcg/g dry solid matter
- PARP activity [3, 8]: 0,256± 0,032

SMILES: O=C(O)CCC(=O)O [succinic acid]
- Duration [1, 4]: 747 ± 90 s
- Loss of Pose Time [1, 4]: 121 ± 34 s
- Restitution time [1, 4]: 1042 ± 69 s
- Stability factor [1, 4]: 1.0±0.2
- PARP activity, % of control brain [2, 4]: 325±20 % of control
- PARP activity, % of control myocardium [2, 4]: 225±22 % of control

SMILES: OC[C@H]1O[C@@H](n2cnc3c(O)ncnc32)[C@H](O)[C@@H]1O [inosine]
- Duration [1, 4]: 754 ± 30 s
- Loss of Pose Time [1, 4]: 186 ± 39 s
- Restitution time [1, 4]: 680 ± 69 s
- Stability factor [1, 4]: 1.16±0.16
- PARP activity, % of control brain [2, 4]: 242±24 % of control
- PARP activity, % of control myocardium [2, 4]: 192±23 % of control

SMILES: NC(=O)c1ccc[n+]([C@@H]2O[C@H](COP(=O)([O-])OP(=O)(O)OC[C@H]3O[C@@H](n4cnc5c(N)ncnc54)[C@H](O)[C@@H]3O)[C@@H](O)[C@H]2O)c1 [NAD, nicotine-amide-adenine-dinucleotide]
- Duration [1, 9]: 2034 ± 234 s
- Loss of Pose Time [1, 9]: 936 ± 79 s
- Restitution time [1, 9]: 1042 ± 44 s
- Stability factor [1, 9]: 1.95±0.25
- Duration [1, 10]: 2077 ± 109 s
- Loss of Pose Time [1, 10]: 1036 ± 91 s
- Restitution time [1, 10]: 1000 ± 82 s
- Stability factor [1, 10]: 2.08±0.22
- PARP activity, % of control myocardium [2, 9]: 100±29 % of control
- PARP activity, % of control myocardium [2, 10]: 103±24 % of control
